From patent US20240384268A1, “Oligonucleotides” (Hudson Institute of Medical Research, priority 2021, published 2024)
In the oligonucleotide strings, read from the 5' end, every base follows the letter of its sugar. An asterisk marks phosphorothioate; unmarked linkages are phosphodiester. Other units and linkages are bracketed, terminal groups are in braces. A string of capitals states the bases alone. d = 2'-deoxy (DNA); m = 2'-O-methyl

What follows are substances tested against cGAS (Homo sapiens, UniProt Q8N884) (assay: ISD70-driven IP-10 (and IFN-β) production in THP-1 cells, ELISA). Conditions: ASO 100 nM; relative to ISD70 only, given as fraction.
Format: cell-based
Set-up: endogenous in cells; host or cells: THP-1 (undifferentiated)

Sequence of cGAS (Q8N884 whole entry): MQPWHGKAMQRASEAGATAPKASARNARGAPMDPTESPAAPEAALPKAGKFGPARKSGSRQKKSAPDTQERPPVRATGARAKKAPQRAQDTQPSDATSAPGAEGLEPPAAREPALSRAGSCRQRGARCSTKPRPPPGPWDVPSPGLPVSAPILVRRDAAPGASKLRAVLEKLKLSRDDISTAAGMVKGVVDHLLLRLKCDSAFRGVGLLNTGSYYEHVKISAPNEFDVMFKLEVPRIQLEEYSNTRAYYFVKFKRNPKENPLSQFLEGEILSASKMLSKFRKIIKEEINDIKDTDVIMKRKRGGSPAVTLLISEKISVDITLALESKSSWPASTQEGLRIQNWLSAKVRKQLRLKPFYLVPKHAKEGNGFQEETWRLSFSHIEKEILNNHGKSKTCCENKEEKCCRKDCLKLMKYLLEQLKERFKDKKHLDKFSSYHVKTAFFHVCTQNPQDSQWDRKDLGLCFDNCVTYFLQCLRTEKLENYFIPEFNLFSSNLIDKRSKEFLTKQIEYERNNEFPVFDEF

Q: Which “cGAS 100 nM (averaged IP-10 level relative to ISD70 condition)” value does the source give for “TCTTGGCTTCGTGGAG (antisense; LNA-modified, pattern not given here) [MB21D1-521 LNA V1]” here?
A: The value was 0.693.

Q: Which “cGAS 100 nM (averaged IP-10 level relative to ISD70 condition)” value does the source give for “TGACAAAGATTCACTG (antisense; LNA-modified, pattern not given here) [HPRT LNA-1353 KL]” here?
A: Its value is 0.887.

Q: For “TGACTGTCTTGAGGGT (antisense; LNA-modified, pattern not given here) [MB21D1-1483 LNA KL]”, which “cGAS 100 nM (averaged IP-10 level relative to ISD70 condition)” value is on record?
A: Its value is 0.747.

Q: How did the “cGAS 100 nM (averaged IP-10 level relative to ISD70 condition)” value turn out when “TGGTCCACAACCCCTT (antisense; LNA-modified, pattern not given here) [MB21D1-697 LNA V1]” was run?
A: Its value is 0.935.

Q: “TGGTGGCCACCCATCT (antisense; LNA-modified, pattern not given here) [CTNN2B-2479 LNA V1]” was tested. Which “cGAS 100 nM (averaged IP-10 level relative to ISD70 condition)” value did it give?
A: Its value is 0.830.

Q: Which “cGAS 100 nM (averaged IP-10 level relative to ISD70 condition)” value does the source give for “TGTCCTTGCACGTGGC (antisense; LNA-modified, pattern not given here) [EGFR-1016 LNA V1]” here?
A: Its value is 0.678.

Q: With “TGTCTGGAAGCTTCCT (antisense; LNA-modified, pattern not given here) [CTNN2B-808 LNA V1]” as the substance, how does the “cGAS 100 nM (averaged IP-10 level relative to ISD70 condition)” value read?
A: The value was 0.617.

Q: “TTCAGGCGCTGCCTTG (antisense; LNA-modified, pattern not given here) [CAMSAP1-2709 LNA V1]” was tested. Which “cGAS 100 nM (averaged IP-10 level relative to ISD70 condition)” value did it give?
A: The value was 0.709.

Same assay, conditions: THP-1; 100 nM ASO overnight, then ISD70 2.5 μg/ml 7-8 h; percentage of ISD70 only

Q: “mA*mA*mA*mG*mC*A*G*T*C*T*C*C*A*T*G*mU*mC*mC*mC*mA (mA*mA*mA*mG*mC*dA*dG*dT*dC*dT*dC*dC*dA*dT*dG*mU*mC*mC*mC*mA; antisense) [[CDKN2B-AS1]2237]” was tested. Which “cGAS-100 nM: averaged IP-10 levels relative to ISD70” value did it give?
A: The value was 70.95%.

Q: With “mA*mA*mG*mC*mA*G*T*C*T*C*C*A*T*G*T*mC*mC*mC*mA*mG (mA*mA*mG*mC*mA*dG*dT*dC*dT*dC*dC*dA*dT*dG*dT*mC*mC*mC*mA*mG; antisense) [[CDKN2B-AS1]2236]” as the substance, how does the “cGAS-100 nM: averaged IP-10 levels relative to ISD70” value read?
A: Its value is 107.34%.

Q: Which “cGAS-100 nM: averaged IP-10 levels relative to ISD70” value does the source give for “mA*mG*mC*mA*mG*T*C*T*C*C*A*T*G*T*C*mC*mC*mA*mG*mG (AGCAGTCTCCATGTCCCAGG; antisense; sugars from the 5' end m5 d10 m5, all phosphorothioate, methylation of C not given here) [[CDKN2B-AS1]2235]” here?
A: The value was 28.75%.

Q: “mA*mG*mU*mC*mU*C*C*A*T*G*T*C*C*C*A*mG*mG*mC*mC*mU (mA*mG*mU*mC*mU*dC*dC*dA*dT*dG*dT*dC*dC*dC*dA*mG*mG*mC*mC*mU; antisense) [[CDKN2B-AS1]2232]” was tested. Which “cGAS-100 nM: averaged IP-10 levels relative to ISD70” value did it give?
A: Its value is 88.13%.

Q: With “mA*mG*mU*mG*mG*C*A*C*A*T*A*C*C*A*C*mA*mC*mC*mC*mU (AGUGGCACATACCACACCCU; antisense; sugars from the 5' end m5 d10 m5, all phosphorothioate, methylation of C not given here) [[CDKN2B-AS1]495]” as the substance, how does the “cGAS-100 nM: averaged IP-10 levels relative to ISD70” value read?
A: The value was 59.69%.

Q: How did the “cGAS-100 nM: averaged IP-10 levels relative to ISD70” value turn out when “mA*mU*mU*mU*mC*C*A*C*A*T*G*C*C*C*A*mG*mU*mG*mU*mU (AUUUCCACATGCCCAGUGUU; antisense; sugars from the 5' end m5 d10 m5, all phosphorothioate, methylation of C not given here) [[CDKN2B-AS1]626]” was run?
A: The value was 52.58%.

Q: How did the “cGAS-100 nM: averaged IP-10 levels relative to ISD70” value turn out when “mC*mA*mG*mU*mC*T*C*C*A*T*G*T*C*C*C*mA*mG*mG*mC*mC (mC*mA*mG*mU*mC*dT*dC*dC*dA*dT*dG*dT*dC*dC*dC*mA*mG*mG*mC*mC; antisense) [[CDKN2B-AS1]2233]” was run?
A: The value was 75.92%.

Q: For “mC*mA*mG*mU*mG*T*T*T*T*T*A*A*T*T*T*mU*mG*mU*mA*mG (mC*mA*mG*mU*mG*dT*dT*dT*dT*dT*dA*dA*dT*dT*dT*mU*mG*mU*mA*mG; antisense) [[CDKN2B-AS1]613]”, which “cGAS-100 nM: averaged IP-10 levels relative to ISD70” value is on record?
A: Its value is 60.94%.

Q: For “mC*mU*mU*mG*mU*G*A*A*A*A*G*A*T*T*A*mU*mC*mU*mU*mC (mC*mU*mU*mG*mU*dG*dA*dA*dA*dA*dG*dA*dT*dT*dA*mU*mC*mU*mU*mC) [[CDKN2B-AS1]2139]”, which “cGAS-100 nM: averaged IP-10 levels relative to ISD70” value is on record?
A: Its value is 33.75%.

Q: “mG*mC*mA*mG*mU*C*T*C*C*A*T*G*T*C*C*mC*mA*mG*mG*mC (GCAGUCTCCATGTCCCAGGC; antisense; sugars from the 5' end m5 d10 m5, all phosphorothioate, methylation of C not given here) [[CDKN2B-AS1]2234]” was tested. Which “cGAS-100 nM: averaged IP-10 levels relative to ISD70” value did it give?
A: The value was 10.02%.

Q: Which “cGAS-100 nM: averaged IP-10 levels relative to ISD70” value does the source give for “mG*mU*mC*mU*mC*C*A*T*G*T*C*C*C*A*G*mG*mC*mC*mU*mC (mG*mU*mC*mU*mC*dC*dA*dT*dG*dT*dC*dC*dC*dA*dG*mG*mC*mC*mU*mC) [[CDKN2B;AS1]2231]” here?
A: The value was 84.16%.

Q: How did the “cGAS-100 nM: averaged IP-10 levels relative to ISD70” value turn out when “mG*mU*mG*mU*mC*C*T*T*C*A*T*G*C*T*T*mU*mG*mG*mA*mU (GUGUCCTTCATGCTTUGGAU; antisense; sugars from the 5' end m5 d10 m5, all phosphorothioate, methylation of C not given here) [[CDKN2B-AS1]1415]” was run?
A: Its value is 58.18%.

Q: For “mG*mU*mG*mU*mU*T*T*T*A*A*T*T*T*T*G*mU*mA*mG*mA*mG (mG*mU*mG*mU*mU*dT*dT*dT*dA*dA*dT*dT*dT*dT*dG*mU*mA*mG*mA*mG) [[CDKN2B-AS1]611]”, which “cGAS-100 nM: averaged IP-10 levels relative to ISD70” value is on record?
A: The value was 66.24%.

Q: With “mU*mA*mU*mU*mU*C*C*A*C*A*T*G*C*C*C*mA*mG*mU*mG*mU (mU*mA*mU*mU*mU*dC*dC*dA*dC*dA*dT*dG*dC*dC*dC*mA*mG*mU*mG*mU; antisense) [[CDKN2B-AS1]627]” as the substance, how does the “cGAS-100 nM: averaged IP-10 levels relative to ISD70” value read?
A: The value was 80.99%.

Same assay, conditions: THP-1; 2′OMe or PS oligos, 100-250 nM, pre-treatment as in figure legends; ISD70 2.5 μg/ml

Q: “mG*mC*mA*mG*mU*C*T*C*C*A*T*G*T*C*C*mC*mA*mG*mG*mC (GCAGUCTCCATGTCCCAGGC; antisense; sugars from the 5' end m5 d10 m5, all phosphorothioate, methylation of C not given here) [[CDKN2B-AS1]2234]” was tested. Which “inhibition of ISD70-driven IP-10 production (in words)” value did it give?
A: The value was “robustly inhibited ISD70-dependent IP-10 production”.
